The subject of assay [1] is CCL17 secretion in peripheral human whole blood. Nature of the assay: Human Whole Blood (HWB) CCL17 TR-FRET Assay (IL-13 stimulated CCL17 secretion). Particulars: Homo sapiens, 48 h, human whole blood. It counts as cell-based. The gist of the method:
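IC50 values reflect inhibition of IL-13-driven CCL17 release in human whole blood. Blood was preincubated with compound 2 h, stimulated 48 h at 37 °C with IL-13 (10 ng/mL final), and serum CCL17 was measured by TR-FRET.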
(TR-FRET usually uses a lanthanide donor and a delayed reading to cut background.)

The target in a further assay is T1, STAT6 (Homo sapiens, UniProt P42226).
T1 construct: stably transfected HaCaT keratinocyte cell line, which expresses NanoLuc luciferase reporter gene under the transcriptional control of the STAT6 responsive promoter; endogenous in cells; host or cells: HaCaT keratinocyte reporter cell line (stably transfected with a NanoLuc reporter)
T1 sequence (P42226 1-847): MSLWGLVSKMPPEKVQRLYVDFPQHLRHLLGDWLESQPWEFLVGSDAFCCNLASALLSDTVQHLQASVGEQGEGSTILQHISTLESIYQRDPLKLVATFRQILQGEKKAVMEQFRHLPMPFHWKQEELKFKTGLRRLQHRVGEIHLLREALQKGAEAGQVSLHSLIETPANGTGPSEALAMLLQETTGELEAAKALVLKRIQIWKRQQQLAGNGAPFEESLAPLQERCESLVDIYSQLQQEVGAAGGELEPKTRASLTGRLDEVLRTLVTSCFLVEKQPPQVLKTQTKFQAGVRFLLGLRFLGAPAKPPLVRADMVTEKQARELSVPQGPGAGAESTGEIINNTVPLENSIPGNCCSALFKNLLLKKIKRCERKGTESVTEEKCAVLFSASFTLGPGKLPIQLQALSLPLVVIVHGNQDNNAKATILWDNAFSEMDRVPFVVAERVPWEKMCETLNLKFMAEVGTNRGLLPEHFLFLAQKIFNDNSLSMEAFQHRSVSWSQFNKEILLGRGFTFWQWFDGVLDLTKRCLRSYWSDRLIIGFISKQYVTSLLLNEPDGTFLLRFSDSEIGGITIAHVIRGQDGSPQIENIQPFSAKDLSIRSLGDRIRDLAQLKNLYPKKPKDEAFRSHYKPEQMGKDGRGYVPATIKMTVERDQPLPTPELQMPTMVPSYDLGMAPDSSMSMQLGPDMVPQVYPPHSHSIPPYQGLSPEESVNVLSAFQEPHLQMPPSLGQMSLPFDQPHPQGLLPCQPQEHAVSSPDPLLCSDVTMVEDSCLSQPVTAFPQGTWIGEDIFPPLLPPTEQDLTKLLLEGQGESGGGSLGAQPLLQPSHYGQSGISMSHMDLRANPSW
Nature of the assay: STAT6 Reporter Luciferase Assay (IL-13 stimulated HaCaT keratinocyte NanoLuc reporter cells). The assay is classed as cell-based. The settings on record: IL-13 stimulated HaCaT STAT6 NanoLuc reporter cells; read-out: Reporter EC50. A digest of the protocol: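 HaCaT IL-13Ra2-promoter NanoLuc reporter; cpd 2 h 37 °C in DMEM/2% HI FBS; IL-13 0.12 nM final, 4 h; Nano-Glo luminescence.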

Broadly, the IC50 is the concentration at which inhibition is half-maximal. Read a low IC50 as inhibition by little substance. One may read the EC50 as the concentration giving half of the maximal effect. On to `CNC(=O)Nc1ccc(CNC(=O)c2nn(C(C)C)c3c2CN(c2ccc(-n4c(C)nn(C)c4=O)cn2)C[C@@H]3C)cc1` [Example 521, (S)-5-(5-(1,3-dimethyl-5-oxo-1,5-dihydro-4H-1,2,4-triazol-4-yl)pyridin-2-yl)-1-isopropyl-7-methyl-N-(4-(3-methylureido)benzyl)-4,5,6,7-tetrahydro-1H-pyrazolo[4,3-c]pyridine-3-carboxamide], for which the IC50 in assay [1] (IL-13 stimulated) was 34 nM. In addition, the EC50 at STAT6 is 2 nM.

Compound `CC(C)n1nc(C(=O)NCc2ccc(NC(=O)N3CCNCC3)cc2)c2c1[C@@H](C)CN(c1ccc(C(=O)N(C)C)cc1)C2` [Example 525, (S)-5-(4-(dimethylcarbamoyl)phenyl)-1-isopropyl-7-methyl-N-(4-(piperazine-1-carboxamido)benzyl)-4,5,6,7-tetrahydro-1H-pyrazolo[4,3-c]pyridine-3-carboxamide] returned an IC50 in assay [1] (IL-13 stimulated) of 7 nM. For the same compound, on STAT6, the EC50 was 2 nM.

`CNC(=O)Nc1ccc(CNC(=O)c2n[nH]c3c2CN(c2ccc(C(=O)N(C)C)cn2)CC3)cc1` [Example 526, 5-(5-(dimethylcarbamoyl)pyridin-2-yl)-N-(4-(3-methylureido)benzyl)-4,5,6,7-tetrahydro-1H-pyrazolo[4,3-c]pyridine-3-carboxamide]: in assay [1] (IL-13 stimulated), inhibition was half-maximal at 2040 nM (IC50). For the same compound, the EC50 at STAT6 was determined as 4010 nM.

For the compound `CC(C)n1nc(C(=O)NCc2ccc(NC(=O)N(C)C)cc2)c2c1[C@@H](C)CN(c1ccc(N3CCCC3=O)cn1)C2` [Example 530, (S)—N-(4-(3,3-Dimethylureido)benzyl)-1-isopropyl-7-methyl-5-(5-(2-oxopyrrolidin-1-yl)pyridin-2-yl)-4,5,6,7-tetrahydro-1H-pyrazolo[4,3-c]pyridine-3-carboxamide], the midpoint of inhibition in assay [1] (10 ng/mL IL13, 48 hours), the IC50, lay at 6 nM. Besides, the half-maximal effective concentration (EC50) at STAT6 was 0.2 nM.

As for `CC(C)n1nc(C(=O)NCc2ccc(NC(=O)N(C)C)cn2)c2c1C[C@H](C)N(c1ncc(C(=O)N(C)C)cn1)C2` [Example 533, (S)-5-(5-(dimethylcarbamoyl)pyrimidin-2-yl)-N-((5-(3,3-dimethylureido)pyridin-2-yl)methyl)-1-isopropyl-6-methyl-4,5,6,7-tetrahydro-1H-pyrazolo[4,3-c]pyridine-3-carboxamide], the IC50 in assay [1] (10 ng/mL IL13, 48 hours) is 18 nM. The EC50 on STAT6 stood at 5 nM.

`CNC(=O)c1ccc(CNC(=O)c2nn(C(C)C)c3c2CN(c2ncc(C(=O)N(C)C)cn2)[C@@H](C)C3)cc1` [Example 534, (S)-5-(5-(dimethylcarbamoyl)pyrimidin-2-yl)-1-isopropyl-6-methyl-N-(4-(methylcarbamoyl)benzyl)-4,5,6,7-tetrahydro-1H-pyrazolo[4,3-c]pyridine-3-carboxamide] returned an IC50 in assay [1] (10 ng/mL IL13, 48 hours) of 155 nM. Further, the EC50 at STAT6 worked out at 33 nM.

In assay [1] (10 ng/mL IL13, 48 hours), `CC(C)n1nc(C(=O)NCc2ccc(NC(=O)N(C)C)cn2)c2c1C[C@H](C)N(c1ccc(C(=O)N(C)C)cn1)C2` [Example 535, (S)-5-(5-(dimethylcarbamoyl)pyridin-2-yl)-N-((5-(3,3-dimethylureido)pyridin-2-yl)methyl)-1-isopropyl-6-methyl-4,5,6,7-tetrahydro-1H-pyrazolo[4,3-c]pyridine-3-carboxamide] gave an IC50 of 13 nM. In addition, on STAT6, the EC50 turned out to be 5 nM.

On to `CC(C)n1nc(C(=O)NCc2ccc(-c3ncc[nH]3)cc2)c2c1C[C@H](C)N(c1ccc(C(=O)N(C)C)cn1)C2` [Example 536, (S)-N-(4-(1H-imidazol-2-yl)benzyl)-5-(5-(dimethylcarbamoyl)pyridin-2-yl)-1-isopropyl-6-methyl-4,5,6,7-tetrahydro-1H-pyrazolo[4,3-c]pyridine-3-carboxamide], for which inhibition in assay [1] (10 ng/mL IL13, 48 hours) was half-maximal at 31 nM (IC50). Moreover, the EC50 at STAT6 stood at 4 nM.

The compound `CNC(=O)c1ccc(CNC(=O)c2nn(C(C)C)c3c2CN(c2ccc(C(=O)N(C)C)cn2)[C@@H](C)C3)cc1` [Example 540, (S)-5-(5-(dimethylcarbamoyl)pyridin-2-yl)-1-isopropyl-6-methyl-N-(4-(methylcarbamoyl)benzyl)-4,5,6,7-tetrahydro-1H-pyrazolo[4,3-c]pyridine-3-carboxamide] returned an IC50 in assay [1] (10 ng/mL IL13, 48 hours) of 76 nM. Besides, at STAT6, the EC50 was 27 nM.

Consider `CCn1nc(C(=O)NCc2ccc(NC(=O)N(C)C)cc2)c2c1C1(CC1)CN(c1ccc(C(=O)N(C)C)cn1)C2` [Example 555, 5′-(5-(dimethylcarbamoyl)pyridin-2-yl)-N-(4-(3,3-dimethylureido)benzyl)-1′-ethyl-1′,4′,5′,6′-tetrahydrospiro[cyclopropane-1,7′-pyrazolo[4,3-c]pyridine]-3′-carboxamide], for which the IC50 in assay [1] (10 ng/mL IL13, 48 hours) was 52 nM. The EC50 at STAT6 turned out to be 5 nM.

Take `CC(C)n1nc(C(=O)NCc2ccc(NC(N)=O)cc2)c2c1[C@@H](C)CN(c1ncc(-c3nccn3C)cn1)C2` [Example 562, (S)-1-isopropyl-7-methyl-5-(5-(1-methyl-1H-imidazol-2-yl)pyrimidin-2-yl)-N-(4-ureidobenzyl)-4,5,6,7-tetrahydro-1H-pyrazolo[4,3-c]pyridine-3-carboxamide]: the IC50 in assay [1] (10 ng/mL IL13, 48 hours) was 8 nM. Moreover, on STAT6, the EC50 was determined as 3 nM.

For the compound `CC(C)n1nc(C(=O)NCc2ccc(NC(=O)N3CCNCC3)c(F)c2)c2c1[C@@H](C)CN(c1ccc(C(=O)N(C)C)cc1)C2` [Example 566, (S)-5-(4-(dimethylcarbamoyl)phenyl)-N-(3-fluoro-4-(piperazine-1-carboxamido)benzyl)-1-isopropyl-7-methyl-4,5,6,7-tetrahydro-1H-pyrazolo[4,3-c]pyridine-3-carboxamide], half-maximal inhibition in assay [1] (10 ng/mL IL13, 48 hours) (IC50) required 15 nM. In addition, the EC50 at STAT6 was determined as 2 nM.

For the compound `CC(C)n1nc(C(=O)NCc2ccc(NC(=O)N3CCCN(C)CC3)cc2)c2c1[C@@H](C)CN(c1ccc(C(=O)N(C)C)cc1)C2` [Example 567, (S)-5-(4-(Dimethylcarbamoyl)phenyl)-1-isopropyl-7-methyl-N-(4-(4-methyl-1,4-diazepane-1-carboxamido)benzyl)-4,5,6,7-tetrahydro-1H-pyrazolo[4,3-c]pyridine-3-carboxamide], in assay [1] (10 ng/mL IL13, 48 hours), the IC50 came out at 13 nM. Further, the EC50 on STAT6 was determined as 1 nM.

For `CN[C@@H]1CCCN(C(=O)Nc2ccc(CNC(=O)c3nn(C(C)C)c4c3CN(c3ccc(C(=O)N(C)C)cc3)C[C@@H]4C)cc2F)C1` [Example 568, (S)-5-(4-(dimethylcarbamoyl)phenyl)-N-(3-fluoro-4-((R)-3-(methylamino)piperidine-1-carboxamido)benzyl)-1-isopropyl-7-methyl-4,5,6,7-tetrahydro-1H-pyrazolo[4,3-c]pyridine-3-carboxamide], the IC50 in assay [1] (10 ng/mL IL13, 48 hours) turned out to be 13 nM. For the same compound, the EC50 on STAT6 was 2 nM.

Turning to `CN[C@H]1CCCN(C(=O)Nc2ccc(CNC(=O)c3nn(C(C)C)c4c3CN(c3ccc(C(=O)N(C)C)cc3)C[C@@H]4C)cc2F)C1` [Example 569, (S)-5-(4-(dimethylcarbamoyl)phenyl)-N-(3-fluoro-4-((S)-3-(methylamino)piperidine-1-carboxamido)benzyl)-1-isopropyl-7-methyl-4,5,6,7-tetrahydro-1H-pyrazolo[4,3-c]pyridine-3-carboxamide], in assay [1] (10 ng/mL IL13, 48 hours), the IC50 is 20 nM. On STAT6, the EC50 was 4 nM.

Take `CC(C)n1nc(C(=O)NCc2ccc(NC(=O)N3CC[C@](C)(N)C3)cc2)c2c1[C@@H](C)CN(c1ccc(C(=O)N(C)C)cc1)C2` [Example 570, (S)-N-(4-((S)-3-amino-3-methylpyrrolidine-1-carboxamido)benzyl)-5-(4-(dimethylcarbamoyl)phenyl)-1-isopropyl-7-methyl-4,5,6,7-tetrahydro-1H-pyrazolo[4,3-c]pyridine-3-carboxamide]: in assay [1] (10 ng/mL IL13, 48 hours), the IC50 stood at 27 nM. Further, the half-maximal effective concentration (EC50) at STAT6 stood at 3 nM.

In assay [1] (10 ng/mL IL13, 48 hours), `CN[C@H]1CCN(C(=O)Nc2ccc(CNC(=O)c3nn(C(C)C)c4c3CN(c3ccc(C(=O)N(C)C)cc3)C[C@@H]4C)cc2)C1` [Example 571, (S)-5-(4-(dimethylcarbamoyl)phenyl)-1-isopropyl-7-methyl-N-(4-((S)-3-(methylamino)pyrrolidine-1-carboxamido)benzyl)-4,5,6,7-tetrahydro-1H-pyrazolo[4,3-c]pyridine-3-carboxamide] displayed an IC50 of 20 nM. For the same compound, the EC50 on STAT6 was determined as 4 nM.

The record behind these values is patent publication US20250320213A1, “Nitrogen-Containing Heterocyclic Compounds” (Pfizer Inc., priority 2024, published 2025).
